Measurements: publication PMC3949521 (Acta Crystallographica Section D: Biological Crystallography, 2014)

Target: T1, B. megaterium PBGD (Priestia megaterium, UniProt Q8GCA8)
T1 construct: gene hemC; His tag removed for crystals; gene encodes 310 residues; about 35 kDa; monomer; cofactor on Cys241; residues 42-62 disordered
Assay: X-ray crystal structure, […] and […] Å
Type: binding
Conditions: covalent (thioether to Cys241), pH 6.5-6.8, partial occupancy

T1 sequence (Q8GCA8 entry or part of it): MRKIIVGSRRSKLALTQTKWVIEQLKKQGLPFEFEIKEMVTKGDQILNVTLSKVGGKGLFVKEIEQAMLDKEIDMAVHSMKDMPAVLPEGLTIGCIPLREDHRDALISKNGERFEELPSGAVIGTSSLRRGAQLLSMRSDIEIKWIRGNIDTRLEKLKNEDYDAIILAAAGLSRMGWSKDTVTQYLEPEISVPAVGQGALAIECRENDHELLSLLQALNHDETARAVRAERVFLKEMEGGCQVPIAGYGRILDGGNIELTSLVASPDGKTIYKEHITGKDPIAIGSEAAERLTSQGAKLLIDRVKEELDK

SMILES	X-ray crystal structure, 1.46 and 1.60 Å (X-ray cannot tell dipyrromethane from dipyrromethene, PDB also 4mlq)	X-ray crystal structure, 1.46 and 1.60 Å (shared with reduced conformer, inactive oxidized form, PDB also 4mlv)
N[C@@H](CSCc1[nH]c(Cc2[nH]cc(CCC(=O)O)c2CC(=O)O)c(CCC(=O)O)c1CC(=O)O)C(=O)O [dipyrromethane cofactor]	one of which corresponds to the fully reduced dipyrromethane	
N[C@@H](CSCc1[nH]c(CC2NC(=O)C(CCC(=O)O)=C2CC(=O)O)c(CCC(=O)O)c1CC(=O)O)C(=O)O (some centres unmarked) [dipyrromethanone]		the 'oxidized' conformation of the cofactor is actually the partly reduced dipyrromethanone form
